Data set [1] is described as follows: in vitro. To be noted: dog, liver microsomes.
Description: Half-life in dog liver microsome
Data set [2] is described as follows: in vitro. Conditions: cat, liver microsomes.
Description: Half-life in cat liver microsome
Data set [3] deals with T1, High affinity nerve growth factor receptor (Homo sapiens, UniProt P04629).
Description: Inhibition of human TRKA kinase domain by HTRF KinEASE biochemical assay
Data set [4] deals with T1, High affinity nerve growth factor receptor. This is another data set of the same source.
Description: Inhibition of human TRKA at active state assessed as inhibition of substrate phosphorylation using fluorescently-labelled peptide as substrate by caliper assay
Data set [5] has the same target. This is another data set of the same source.
Description: Inhibition of human TRKA by FLIPR assay
Data set [6] shares this target. The source holds these as a separate data set.
Description: Inhibition of human TRKA at inactive state assessed as inhibition of substrate phosphorylation using fluorescently-labelled peptide as substrate by caliper assay
Data set [7] has as its target BDNF/NT-3 growth factors receptor (Homo sapiens, UniProt Q16620).
Description: Inhibition of human TRKB by FLIPR assay
Data set [8] is described as follows: in vitro. Conditions: dog, MDCK-MDR1.
Description: Permeability from basolateral to apical side in dog MDCK cells
Data set [9] in a line: in vitro. Conditions: dog, MDCK.
Description: Permeability from apical to basolateral side in dog MDCK cells
The target in data set [10] is T1, High affinity nerve growth factor receptor. This is another data set of the same source.
Description: Inhibition of human TRKA at inactive state by kinetic based analysis
Data set [11] shares this target. The source holds these as a separate data set.
Description: Inhibition of human TRKA at active state by kinetic based analysis

Values after ≈ are worked out from the molar mass of the structure shown. Where only a bound is given, the exact number is not on record here.

T1 sequence (P04629 whole entry): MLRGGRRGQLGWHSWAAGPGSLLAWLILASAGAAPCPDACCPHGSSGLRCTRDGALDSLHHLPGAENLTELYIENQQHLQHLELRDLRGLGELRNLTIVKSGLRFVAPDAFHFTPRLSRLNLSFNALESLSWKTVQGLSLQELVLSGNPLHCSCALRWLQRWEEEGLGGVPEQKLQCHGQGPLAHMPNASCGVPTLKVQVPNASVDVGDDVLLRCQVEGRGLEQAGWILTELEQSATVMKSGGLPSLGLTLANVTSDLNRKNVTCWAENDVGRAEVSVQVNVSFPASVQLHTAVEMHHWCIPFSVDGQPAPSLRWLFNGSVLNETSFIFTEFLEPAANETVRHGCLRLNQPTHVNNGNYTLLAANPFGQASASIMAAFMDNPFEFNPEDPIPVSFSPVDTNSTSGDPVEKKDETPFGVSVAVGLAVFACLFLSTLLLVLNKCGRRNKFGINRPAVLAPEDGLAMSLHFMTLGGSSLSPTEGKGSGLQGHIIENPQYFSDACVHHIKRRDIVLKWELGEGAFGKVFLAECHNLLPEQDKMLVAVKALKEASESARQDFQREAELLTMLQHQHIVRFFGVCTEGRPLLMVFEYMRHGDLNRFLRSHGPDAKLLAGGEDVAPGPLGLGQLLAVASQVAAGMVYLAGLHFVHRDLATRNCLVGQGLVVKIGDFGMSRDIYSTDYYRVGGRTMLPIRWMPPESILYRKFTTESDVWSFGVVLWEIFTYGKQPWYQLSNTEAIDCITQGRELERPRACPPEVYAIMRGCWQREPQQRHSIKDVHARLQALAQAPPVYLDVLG
BDNF/NT-3 growth factors receptor, sequence (Q16620 whole entry): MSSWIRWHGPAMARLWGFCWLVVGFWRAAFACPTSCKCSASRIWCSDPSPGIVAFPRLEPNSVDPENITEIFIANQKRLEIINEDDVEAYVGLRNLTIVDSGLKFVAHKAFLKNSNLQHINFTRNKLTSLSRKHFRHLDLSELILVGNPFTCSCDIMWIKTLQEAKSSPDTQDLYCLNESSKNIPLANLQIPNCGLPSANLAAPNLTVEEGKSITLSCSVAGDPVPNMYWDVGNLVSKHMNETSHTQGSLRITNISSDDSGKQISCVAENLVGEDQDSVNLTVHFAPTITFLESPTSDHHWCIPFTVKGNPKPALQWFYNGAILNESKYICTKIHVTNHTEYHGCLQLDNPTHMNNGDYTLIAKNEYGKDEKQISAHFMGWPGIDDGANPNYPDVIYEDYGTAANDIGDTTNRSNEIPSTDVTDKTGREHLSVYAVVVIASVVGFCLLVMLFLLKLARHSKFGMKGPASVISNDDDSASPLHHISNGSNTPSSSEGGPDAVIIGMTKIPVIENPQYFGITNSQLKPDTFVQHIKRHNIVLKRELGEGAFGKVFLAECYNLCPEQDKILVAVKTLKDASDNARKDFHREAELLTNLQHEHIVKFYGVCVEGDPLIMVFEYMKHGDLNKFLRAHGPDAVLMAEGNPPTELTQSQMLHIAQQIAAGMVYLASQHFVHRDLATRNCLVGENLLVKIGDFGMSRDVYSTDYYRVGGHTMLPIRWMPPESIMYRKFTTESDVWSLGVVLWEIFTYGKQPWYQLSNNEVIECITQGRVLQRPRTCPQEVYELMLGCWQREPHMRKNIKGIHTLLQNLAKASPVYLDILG
Description for physchem: Kinetic solubility of compound

For `COc1ccc(Cl)cc1NC(=O)Nc1ccc2nc(NC(=O)c3ccccc3)sc2c1`, the half-life – broadly, how long it takes for the measured level to halve – in “in vitro [1]” stood at 1.25 h; in the data set “in vitro [2]”, 0.933 h. The half-maximal inhibitory concentration (IC50) (commonly the point on the concentration scale where inhibition reaches its midpoint) in data set [3] is 178 nM; in data set [4] it was above 10000 nM; in [5] it was above 20000 nM; in data set [6], above 10000 nM; in data set [7], above 20000 nM. The kinetic solubility – broadly, the concentration staying in solution when a stock, usually in DMSO, is diluted into the medium – in “physchem” was 1.3 µM (≈ 0.589 µg/mL).

Turning to `COc1ccc(-n2ncc3c(=O)n(CC(=O)Nc4cc(C(F)(F)F)ccc4Cl)cnc32)cc1`, the half-life in the data set “in vitro [1]” and in the data set “in vitro [2]” was 2 h in each case. The Papp B→A (as a rule, how fast a substance crosses the layer from the basolateral side) in “in vitro [8]” is 6.4 ×10⁻⁶ cm/s. Besides, the IC50 in data set [3] is 102 nM; in data set [5] it was 7500 nM; in data set [7], above 20000 nM. For the same compound, the apparent permeability from apical to basolateral (Papp A→B) (as a rule, the apparent permeability from the apical to the basolateral side of a cell layer) in “in vitro [9]” came to 4.8 ×10⁻⁶ cm/s. For the same compound, in the data set “physchem”, the kinetic solubility stood at 3.5 µM (≈ 1.67 µg/mL).

On to `O=C(Nc1ccc(N2CCOCC2)cc1N1CCOCC1)c1cccc(Oc2ccccc2)c1`, for which the IC50 in data set [4] came to 76 nM; in [6], 94 nM.

As to `NC(=O)c1ccc(-c2nnn(CC(=O)Nc3cc(C(F)(F)F)ccc3-n3cncn3)n2)cc1`, the half-life in “in vitro [1]” and in the data set “in vitro [2]” was 2 h throughout. For the same compound, the IC50 was 47.1 nM in [3], above 20000 nM in data set [5] and above 20000 nM in data set [7]. In “physchem”, this compound came in with a kinetic solubility of 15.9 µM (≈ 7.27 µg/mL).

For `O=C(Nc1ccc(N2CCOCC2)cc1N1CCOCC1)c1cnn(-c2ccccc2)n1`, the half-life in “in vitro [1]” was 1.35 h; in the data set “in vitro [2]”, 0.267 h. The inhibitory constant (Ki) (usually a dissociation constant, usually derived from enzyme kinetics or from competition with a known ligand) stood at 1 nM in [10] and 0.4 nM in data set [11]. Moreover, in the data set “in vitro [8]”, the Papp B→A stood at 7.6 ×10⁻⁶ cm/s. Further, the IC50 worked out at 5.2 nM in [3]; 45 nM in data set [4]; 170 nM in data set [5]; 21 nM in data set [6]; 15900 nM in data set [7]. Also, the Papp A→B in “in vitro [9]” is 4.1 ×10⁻⁶ cm/s. Besides, the kinetic solubility in the data set “physchem” was found to be 12.7 µM (≈ 5.52 µg/mL).

For the origin of these results see ChEMBL document CHEMBL4715685, “Synthetic inhibitor leads of human tropomyosin receptor kinase A (hTrkA)” (RSC Med Chem, 2020).
